From PubChem BioAssay AID1996
Values after ≈ are worked out from the molar mass of the structure shown. Residues, ends and D or L forms follow the SMILES beside them. *: point of attachment. Piperidide = C1CCN(*)CC1; PhAc = O=C(Cc1ccccc1)*

Conditions: buffer; pH 7.4; 200.0 µM

`COc1ccc(NCc2cccnc2)cc1` and `COc1ccc(CC(=O)OCC(=O)Nc2cccc(Cl)c2)cc1` are within 1.5-fold of each other in solubility kinetic: 26.8 µg/mL (≈ 125 µM) for the first, 34 µg/mL (≈ 102 µM) for the second.

Going from `COC(=O)c1ccc(-c2noc(CN(C)CC3CCCCO3)n2)cc1` (stereo not given) to `COc1ccc(N(Cc2cc3ccc(C)cc3[nH]c2=O)C(=O)C2CCCO2)cc1` (stereo not given), the solubility kinetic falls from greater than 51.8 µg/mL to 10.1 µg/mL (≈ 25.7 µM).

`Cc1cccc(Nc2nc(-c3sc(C)nc3C)cs2)c1` and `Cc1cccc(NC(=O)CCCCC(=O)Nc2cccc(C)c2)c1` cannot be ordered by solubility kinetic: 0.2 µg/mL (≈ 0.663 µM) for the first, less than 0.3 µg/mL for the second.

Going from `CC(=O)c1c(-c2ccc(Cl)cc2)c2ccccc2[nH]c1=O` to `CCOc1ccccc1NC(=O)CCNC(=O)c1ccc(Cl)cc1`, the solubility kinetic rises from 0.9 µg/mL (≈ 3.02 µM) to 5.6 µg/mL (≈ 16.1 µM) (6.2-fold).

Going from `CCCCN(CC)C(=O)c1cc2c(=O)[nH]c3ccc(C)cc3c2s1` to `Cc1cc(C)cc(N2C(=O)CC(Sc3ccccc3C(=O)O)C2=O)c1` (stereo not given), the solubility kinetic rises from 0.5 µg/mL (≈ 1.46 µM) to 52.4 µg/mL (≈ 147 µM) (100-fold).

First: Cc1cccnc1NC(=S)Nc1ccc(Cl)c(Cl)c1
Second: Fc1ccc(NC(=S)Nc2ccc3nccnc3c2)cc1
The solubility kinetic of the first is 11-fold lower: 3.7 µg/mL (≈ 11.9 µM) for the first, 41.9 µg/mL (≈ 140 µM) for the second.

First: Cc1c(C(=O)OCC(=O)N2CCN(c3ccccc3)CC2)oc2ccccc12
Second: CCC1CN(C(=O)NCc2ccccc2)c2ccccc2O1 (stereo not given)
The solubility kinetic of the first is 9.6-fold lower: 4.5 µg/mL (≈ 11.9 µM) for the first, 43.2 µg/mL (≈ 146 µM) for the second.

Going from `Cc1ccc(C(=O)NCCNC(=O)c2ccccc2)cc1` to `Cc1ccc(C(=O)NCC(=O)Nc2ccc3c(c2)CCC3)cc1`, the solubility kinetic falls from greater than 42.4 µg/mL to 3 µg/mL (≈ 9.73 µM).

First: Cl.OC(c1ccc(Cl)cc1)C(CN1CCOCC1)c1ccccc1 (stereo not given)
Second: O=C(Nc1cc(Cl)ccc1N1CCOCC1)c1ccc(=O)[nH]c1
The solubility kinetic of the first is higher: greater than 55.2 µg/mL for the first, 38.1 µg/mL (≈ 114 µM) for the second.

First: Br.CC(Cc1ccc(O)cc1)NCC(O)c1cc(O)cc(O)c1 (stereo not given)
Second: O=c1cc(C(O)C[N+](=O)[O-])occ1OCc1ccccc1 (stereo not given)
The solubility kinetic of the first is higher: greater than 57.6 µg/mL for the first, 41.6 µg/mL (≈ 143 µM) for the second.

Going from `CC(=O)c1ccc(NC(=O)NC2CCCc3ccccc32)cc1` (stereo not given) to `COCc1ccc(C(=O)NC2CCSc3ccccc32)cc1` (stereo not given), the solubility kinetic rises from 4.9 µg/mL (≈ 15.9 µM) to 16.8 µg/mL (≈ 53.6 µM) (3.4-fold).

`O=C(O)CCCC(=O)N1CCN(c2ncccn2)CC1` and `O=C(CNC(=O)Cc1ccccc1)NCC(=O)N1CCCCC1` (PhAc-Gly-Gly-Piperidide) cannot be ordered by solubility kinetic: greater than 41.7 µg/mL for the first, greater than 47.6 µg/mL for the second.

`CCOc1cc(C(=O)N2CCCN(C)CC2)cc(OCC)c1OCC` and `CCC(Oc1ccc(C)c(C)c1)C(=O)N1CCCN(C)CC1` (stereo not given) cannot be ordered by solubility kinetic: greater than 52.6 µg/mL for the first, greater than 45.7 µg/mL for the second.

Compared with `CCN(Cc1ccncc1)C(=S)NCc1ccccc1`, `Cc1cc(F)ccc1NC(=S)NCCc1ccccc1` is 1.9-fold lower in solubility kinetic: 42.1 µg/mL (≈ 148 µM) for the first, 22.5 µg/mL (≈ 78 µM) for the second.

Going from `CS(=O)(=O)c1ccc(Cl)c(NC(=O)CN2CCN(C(=O)c3cccs3)CC2)c1` to `O=C(Nc1ccc(Cl)cc1)N1CCN(Cc2ccc3c(c2)OCO3)CC1`, the solubility kinetic falls from greater than 66.3 µg/mL to 5.7 µg/mL (≈ 15.2 µM).

Compared with `O=C(NC(=S)NCc1cccnc1)c1cc(Br)ccc1Cl`, `O=C(NCc1cccnc1)c1ccccc1NC(=O)c1c(F)cccc1F` is higher in solubility kinetic: 0.9 µg/mL (≈ 2.34 µM) for the first, greater than 55.1 µg/mL for the second.

`COc1cc(/C=C2\SC(N3CCC(C)CC3)=NC2=O)ccc1O` and `CC1CCN(CC(C)OC(=O)c2ccco2)CC1.Cl` (stereo not given) cannot be ordered by solubility kinetic: greater than 49.9 µg/mL for the first, greater than 43.2 µg/mL for the second.

`NC(=O)NNC(=S)Nc1cccc2ccccc12` and `Cc1cccc(NC(=O)CCS(=O)(=O)c2ccccc2)n1` cannot be ordered by solubility kinetic: greater than 39 µg/mL for the first, greater than 45.7 µg/mL for the second.

Compared with `CCCN1C(=O)CC(Sc2ncccc2C(=O)O)C1=O` (stereo not given), `CC1CC2c3cccc(C(=O)O)c3C(=O)N2c2ccc(Cl)cc21` (stereo not given) is higher in solubility kinetic: 42.5 µg/mL (≈ 144 µM) for the first, greater than 49.2 µg/mL for the second.

Going from `CCOc1ccc(N2C(=O)/C(=C/c3ccccn3)SC2=S)cc1` to `COc1ccc(-n2c(=S)[nH]c3sc4c(c3c2=O)CCc2ccccc2-4)cc1`, the solubility kinetic rises from less than 0.4 µg/mL to 1.4 µg/mL (≈ 3.57 µM).

Compared with `Cc1cc(-c2cccc(Br)c2)c(C#N)c(N)n1`, `Cc1cc(NC(=O)C(C)Sc2nc(-c3ccccc3)cc(=O)[nH]2)no1` (stereo not given) is 5.6-fold higher in solubility kinetic: 3.1 µg/mL (≈ 10.8 µM) for the first, 17.4 µg/mL (≈ 48.8 µM) for the second.

`O=C(NCc1ccco1)C(=S)N1CCCC1` and `CN(CC(=O)Nc1ccc(F)cc1)CC(=O)N1CCCC1` cannot be ordered by solubility kinetic: greater than 35.7 µg/mL for the first, 43 µg/mL (≈ 147 µM) for the second.

Going from `C(=C\c1nc(-c2ccncc2)no1)/c1ccccc1` to `Nc1nc(Nc2ccccc2)nc(C(F)(F)F)n1`, the solubility kinetic rises from 3.4 µg/mL (≈ 13.6 µM) to greater than 38.3 µg/mL.

Going from `Cc1cc(C)c2c(ccc3cccc[n+]32)c1.[O-][Cl+3]([O-])([O-])[O-]` to `COC(=O)CCc1nc2cc(Cl)ccc2n(Cc2ccccc2)c1=O`, the solubility kinetic falls from greater than 46.2 µg/mL to 1.4 µg/mL (≈ 3.92 µM).

Compared with `COc1ccc(OCC(=O)N2c3ccccc3CC2C)c([N+](=O)[O-])c1` (stereo not given), `COc1cc(Cl)cc(/C=C/c2ccc3cccc(O)c3n2)c1OC` is lower in solubility kinetic: 17.3 µg/mL (≈ 50.5 µM) for the first, less than 0.7 µg/mL for the second.

First: O=S(=O)(Cc1ccc(Cl)cc1)N1CCCCCC1
Second: O=C(NN=C1CCCCCC1)c1ccncc1
The solubility kinetic of the first is lower: 4.5 µg/mL (≈ 15.6 µM) for the first, greater than 34.7 µg/mL for the second.

`CC(C)c1ccc(-n2ccnc2SCC(=O)O)cc1` and `CC(NC(=O)c1ccccc1N)c1ccccc1` (stereo not given) cannot be ordered by solubility kinetic: greater than 41.5 µg/mL for the first, greater than 36 µg/mL for the second.

`O=C1OC(N2C(=O)CC[C@H]2C(=O)NCC2CCCO2)c2ccccc21` (stereo not given in full) and `O=C(CN1C(=O)COc2ccccc21)N1CCCC1` cannot be ordered by solubility kinetic: greater than 51.7 µg/mL for the first, greater than 39 µg/mL for the second.

Going from `COc1cc(C(=O)NNC(=O)C2CCCC2)cc(OC)c1OC` to `O=C(COC(=O)c1ccc(Br)o1)Nc1ccc2c(c1)OCCO2`, the solubility kinetic falls from greater than 48.4 µg/mL to 5.1 µg/mL (≈ 13.3 µM).

Compared with `C=CCc1c(Cl)nc(C)nc1NCc1ccccc1`, `CC(C)(C)c1ccc(-c2cnco2)cc1` is 6.4-fold lower in solubility kinetic: 5.8 µg/mL (≈ 21.2 µM) for the first, 0.9 µg/mL (≈ 4.47 µM) for the second.
